Results reported in US20130274254A1, “INHIBITORS OF CYTOCHROME P450 (CYP3A4)” (Gilead Sciences, Inc., priority 2010, published 2013).

Key:
CYP3A4 [1] = target: T1, CYP3A4 (Homo sapiens, UniProt P08684); test: CYP3A inhibition assay, midazolam 1'-hydroxylase activity in pooled human hepatic microsomal fraction; format: biochemical; settings: pooled human liver microsomes, pH 7.4, probe midazolam (1'-hydroxylation), 0.25 mg/mL microsomal protein
Experimental: Pooled (n≧15 donors) human hepatic microsomal fraction was obtained from BD-Gentest (Woburn, Mass.) who also supplied hydroxy-terfenadine, 4′-hydroxydiclofenac and NADPH regenerating system. Ritonavir was prepared from commercial Norvir® oral solution (Abbott Laboratories, Abbott Park, Ill.). Other reagents were from Sigma-Aldrich (St. Louis, Mo.) and included terfenadine, fexofenadine, BRL 15572, diclofenac and mefenamic acid. […]
(§1) IC50 values (the concentration of inhibitor reducing CYP3A activity by 50%) were calculated by non-linear regression using GraphPad Prism 4.0 software and a sigmoidal model.
[…] For testosterone hydroxylase activity the final microsomal protein concentration was 0.5 mg/mL, the substrate concentration was 50 μM and the LC-MS internal standard was D7-labeled 6β-hydroxytestosterone. After incubation at 37° C. for 5 minutes, metabolic reactions were terminated by treatment with quench solution containing the appropriate internal standard and were subsequently centrifuged before aliquots of the supernatant were removed and diluted with 0.1% (v/v) formic acid for LC-MS analysis.
(§2) For LC-MS analysis the column was a Phenomenex Synergi Max RP 4 μm column (50×2.0 mm) and the injection volume was 5 μL. The MS/MS ion current metabolite/internal standard peak area ratios (PAR) were measured on an Applied Biosystems SciEx API4000 triple quadrupole mass spectrometer coupled to a Leap CTC PAL autosampler with a 20 μL loop and a Shimadzu LC pump with a 25 μL mixer. The initial mobile phase consisted of 94.9% water, 0.1% formic acid, and 5% acetonitrile (v/v/v) pumped at 0.5 mL/min. After 0.5 min the acetonitrile concentration was increased to 30% over 0.5 min. The acetonitrile concentration was then further increased to 100% over 0.5 min and held for 1.3 min, after which the column was re equilibrated at the initial conditions for 1.2 min. Rates of metabolite formation were determined from standard curves using PAR determined with authentic metabolite standards.

CYP3A4 [2] = target: T1, CYP3A4; test: CYP3A inhibition assay, testosterone 6β-hydroxylase activity in pooled human hepatic microsomal fraction
Experimental: Pooled (n≧15 donors) human hepatic microsomal fraction was obtained from BD-Gentest (Woburn, Mass.) who also supplied hydroxy-terfenadine, 4′-hydroxydiclofenac and NADPH regenerating system. Ritonavir was prepared from commercial Norvir® oral solution (Abbott Laboratories, Abbott Park, Ill.). Other reagents were from Sigma-Aldrich (St. Louis, Mo.) and included terfenadine, fexofenadine, BRL 15572, diclofenac and mefenamic acid.
Incubations were performed in duplicate in 50 mM potassium phosphate buffer, pH 7.4 with NADPH regenerating system used as described by the manufacturer. […] The final substrate concentrations used were equal to the apparent Km values for the activities determined under the same conditions. Inhibitors were dissolved in DMSO, and the final concentration of DMSO, from both substrate and inhibitor vehicles, was 1% (v/v). Incubations were performed at 37° C. with shaking and were initiated by addition of substrate. Aliquots were then removed at 0, 7 and 15 minutes. Samples were quenched by treatment with an acetonitrile, formic acid, water (94.8%/0.2%/5%, v/v/v) mixture containing internal standard. Precipitated protein was removed by centrifugation at 3000 rpm for 10 min and aliquots of the supernatant were then subjected to LC-MS analysis.
The LC-MS system consisted of a Waters Acquity UPLC, with a binary solvent manager and a refrigerated (8° C.) sample organizer and sample manager, interfaced to a Micromass Quattro Premier tandem mass spectrometer operating in electrospray ionization mode. The column was a Waters Acquity UPLC BEH C18 2.1×50 mm, 1.7 μm pore size. Mobile phases consisted of mixtures of acetonitrile, formic acid and water, the composition for mobile phase A being 1%/0.2%/98.8% (v/v/v) and that for mobile phase B being 94.8%/0.2%/5% (v/v/v). The injection volumes were 5 μL and the flow rate was 0.8 mL/min. Concentrations of metabolites were determined by reference to standard curves generated with authentic analytes under the same conditions as the incubations.
as §1
For midazolam hydroxylase determination the final concentrations of microsomal protein and […] substrate were 0.25 mg/mL and 2.5 μM, respectively, and the LC-MS internal standard was 1α-hydroxytriazolam. For testosterone hydroxylase activity the final microsomal protein concentration was 0.5 mg/mL, the substrate concentration was 50 μM and the LC-MS internal standard was D7-labeled 6β-hydroxytestosterone. After incubation at 37° C. for 5 minutes, metabolic reactions were terminated by treatment with quench solution containing the appropriate internal standard and were subsequently centrifuged before aliquots of the supernatant were removed and diluted with 0.1% (v/v) formic acid for LC-MS analysis.
as §2

T1 sequence (P08684 2-503): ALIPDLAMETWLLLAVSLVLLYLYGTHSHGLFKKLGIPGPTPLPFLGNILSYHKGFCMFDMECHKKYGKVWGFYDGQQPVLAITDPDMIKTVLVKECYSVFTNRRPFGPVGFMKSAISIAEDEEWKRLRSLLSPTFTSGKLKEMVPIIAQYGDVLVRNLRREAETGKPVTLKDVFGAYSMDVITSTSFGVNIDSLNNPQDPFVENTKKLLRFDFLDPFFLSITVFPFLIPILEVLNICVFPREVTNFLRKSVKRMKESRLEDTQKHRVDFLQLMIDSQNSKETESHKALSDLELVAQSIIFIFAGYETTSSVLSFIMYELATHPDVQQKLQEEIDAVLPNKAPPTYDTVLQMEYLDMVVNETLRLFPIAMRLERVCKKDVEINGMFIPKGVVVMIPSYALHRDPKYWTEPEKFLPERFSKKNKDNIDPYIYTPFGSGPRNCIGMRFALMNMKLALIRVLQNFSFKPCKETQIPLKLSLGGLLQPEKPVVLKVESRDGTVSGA

Structure (SMILES) | IC50 at 5 min (CYP3A4 [1]) [µM] | IC50 (CYP3A4 [2]) [nM]
CC(C)N(C)C(=O)N[C@@H](CCN1CCOCC1)C(=O)N[C@H](CC[C@H](Cc1ccccc1)NC(=O)OCc1cncs1)Cc1ccccc1 [Compound 7] | 0.14 | 310
CC(=O)NCC[C@H](NC(=O)N1CCCCC1)C(=O)N[C@@H](CC[C@@H](Cc1ccccc1)NC(=O)OCc1cncs1)Cc1ccccc1 [Compound 41] | < 0.1 | 400
CC(C)[C@H](NC(=O)N1CCN(C)CC1)C(=O)N[C@H](CC[C@H](Cc1ccccc1)NC(=O)OCc1cncs1)Cc1ccccc1 [Compound 28] | 0.19 | 470
CC(C)CN(C)C(=O)N[C@@H](CCN1CCOCC1)C(=O)N[C@H](CC[C@H](Cc1ccccc1)NC(=O)OCc1cncs1)Cc1ccccc1 [Compound 14] | 0.13 | 320
O=C(N[C@H](CC[C@H](Cc1ccccc1)NC(=O)[C@@H]1C[C@@H](O)CN1C(=O)OCc1ccccc1)Cc1ccccc1)OCc1cncs1 [Compound 67] | 0.18 | 210
CN1CCN(C(=O)N[C@@H](CCN2CCOCC2)C(=O)N[C@H](CC[C@H](Cc2ccccc2)NC(=O)OCc2cncs2)Cc2ccccc2)CC1 [Compound 15] | 0.41 | 1100
O=C(NC1CCCCC1)N[C@@H](CCN1CCOCC1)C(=O)N[C@H](CC[C@H](Cc1ccccc1)NC(=O)OCc1cncs1)Cc1ccccc1 [Compound 18] | 0.18 | 350
CN(Cc1ccccc1)C(=O)N[C@@H](CCN1CCOCC1)C(=O)N[C@H](CC[C@H](Cc1ccccc1)NC(=O)OCc1cncs1)Cc1ccccc1 [Compound 17] | 0.13 | 300
CN(C)C(=O)N[C@@H](CCN1CCOCC1)C(=O)N[C@H](CC[C@H](Cc1ccccc1)NC(=O)OCc1cncs1)Cc1ccccc1 [Compound 16] | 0.15 | 710
CN(Cc1ccccn1)C(=O)N[C@@H](CCN1CCOCC1)C(=O)N[C@H](CC[C@H](Cc1ccccc1)NC(=O)OCc1cncs1)Cc1ccccc1 [Compound 61] | 0.19 | 530
CN(Cc1ccco1)C(=O)N[C@@H](CCN1CCOCC1)C(=O)N[C@H](CC[C@H](Cc1ccccc1)NC(=O)OCc1cncs1)Cc1ccccc1 [Compound 60] | 0.13 | 290
CC(C)c1nc(CN(C)C(=O)N[C@H](C(=O)N[C@H](CC[C@H](Cc2ccccc2)NC(=O)CCc2cccs2)Cc2ccccc2)C(C)C)cs1 [Compound 89] | 0.7 | 2300
O=C(N[C@H](CC[C@H](Cc1ccccc1)NC(=O)[C@H](CCN1CCOCC1)NC(=O)N1CCOCC1)Cc1ccccc1)OCc1cncs1 [Compound 12] | 0.2 | 640
CC(=O)NCC[C@H](NC(=O)N1CCCCC1)C(=O)N[C@H](CC[C@H](Cc1ccccc1)NC(=O)OCc1cncs1)Cc1ccccc1 [Compound 40] | 0.1 | 220
CC(C)[C@H](NC(=O)N(C)C(C)C)C(=O)N[C@H](CC[C@H](Cc1ccccc1)NC(=O)OCc1cncs1)Cc1ccccc1 [Compound 29] | < 0.1 | 320
CC(C)c1nc(CN(C)C(=O)N[C@H](C(=O)N[C@H](CC[C@H](Cc2ccccc2)NC(=O)OC(C)(C)C)Cc2ccccc2)C(C)C)cs1 [Compound 70] | 0.72 | 1500
CC(C)(C)OC(=O)N[C@@H](CCN1CCOCC1)C(=O)N[C@H](CC[C@H](Cc1ccccc1)NC(=O)OCc1cncs1)Cc1ccccc1 [Compound 54] | < 0.1 | 410
CN(C(=O)N[C@@H](CCN1CCOCC1)C(=O)N[C@H](CC[C@H](Cc1ccccc1)NC(=O)OCc1cncs1)Cc1ccccc1)C1CCCCC1 [Compound 19] | 0.18 | 280
COCCN(C)C(=O)N[C@@H](CCN1CCOCC1)C(=O)N[C@H](CC[C@H](Cc1ccccc1)NC(=O)OCc1cncs1)Cc1ccccc1 [Compound 21] | 0.26 | 560
CN(Cc1cccnc1)C(=O)N[C@@H](CCN1CCOCC1)C(=O)N[C@H](CC[C@H](Cc1ccccc1)NC(=O)OCc1cncs1)Cc1ccccc1 [Compound 59] | < 0.1 | 450
CC(C)c1nc(CN(C)C(=O)N[C@H](C(=O)N[C@H](CC[C@H](Cc2ccccc2)NC(=O)OCc2cccnc2)Cc2ccccc2)C(C)C)cs1 [Compound 73] | 0.16 | 450
O=C(N[C@H](CC[C@H](Cc1ccccc1)NC(=O)[C@H](CCN1CCOCC1)NC(=O)N1CCCC1)Cc1ccccc1)OCc1cncs1 [Compound 10] | 0.22 | 320
CC(=O)NCC[C@H](NC(=O)N(C)C(C)C)C(=O)N[C@H](CC[C@H](Cc1ccccc1)NC(=O)OCc1cncs1)Cc1ccccc1 [Compound 35] | 0.15 | 150
CN(Cc1ccc(F)cc1)C(=O)N[C@@H](CCN1CCOCC1)C(=O)N[C@H](CC[C@H](Cc1ccccc1)NC(=O)OCc1cncs1)Cc1ccccc1 [Compound 20] | 0.11 | 360
CC(=O)NCC[C@H](NC(=O)N(C)C(C)C)C(=O)N[C@@H](CC[C@@H](Cc1ccccc1)NC(=O)OCc1cncs1)Cc1ccccc1 [Compound 36] | < 0.1 | 240
Cc1ncsc1CCC(=O)N[C@H](CC[C@H](Cc1ccccc1)NC(=O)[C@@H](NC(=O)N(C)Cc1csc(C(C)C)n1)C(C)C)Cc1ccccc1 [Compound 90] | 0.19 | 450
CN(C(=O)N[C@@H](CCN1CCOCC1)C(=O)N[C@H](CC[C@H](Cc1ccccc1)NC(=O)OCc1cncs1)Cc1ccccc1)C(C)(C)C [Compound 11] | 0.13 | 420
CC(C)N(C)C(=O)N[C@H](CCN1CCOCC1)C(=O)N[C@H](CC[C@H](Cc1ccccc1)NC(=O)OCc1cncs1)Cc1ccccc1 [Compound 53] | < 0.1 | 260
CC(C)[C@H](NC(=O)N1CCOCC1)C(=O)N[C@H](CC[C@H](Cc1ccccc1)NC(=O)OCc1cncs1)Cc1ccccc1 [Compound 27] | 0.11 | 250
